In brackets after ≈: the same amount, converted by molar mass. Read-outs that look alike come from different tables or passages of the source.
Legend:
Salmonella Typhimurium = assay: MIC with/without PMBN, Salmonella Typhimurium; type: cell-based
Method in brief: (§1)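 Gram-negative MICs were determined for rhodanines alongside control antibiotics, each combined with sub-inhibitory colistin or PMBN. Further testing used the efflux-deficient E. coli SM1411ΔacrAB, missing the AcrAB multidrug pump.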

Escherichia coli O157:H7 = assay: MIC with/without PMBN, Escherichia coli O157:H7; type: cell-based
Method in brief: as §1

Bacillus Strains = assay: Broth microdilution MIC50/MIC90 and MIC range, Bacillus strains panel; type: cell-based, Bacillus spp.; conditions: 10 Bacillus strains
Text: The broth microdilution technique was used, followed by subculturing on agar plates that were rhodanine—free. […] The MICs reported represent the lowest concentration of each compound necessary to inhibit bacterial growth and the MBCs represent the lowest concentration required to reduce the initial bacterial inoculum by ≥ 99.9%.

P. aeruginosa = assay: Broth microdilution MIC, P. aeruginosa; type: cell-based; conditions: Pseudomonas aeruginosa
Clostridium difficile = assay: MIC against Clostridium difficile, anaerobic broth dilution; type: cell-based; conditions: Clostridioides difficile
Method in brief: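 Clinical C. difficile isolates grown anaerobically 48 h at 37 °C, suspended to 0.5 McFarland and diluted 1:300 in pre-reduced supplemented Brain Heart Infusion broth. Compounds serially diluted; plates incubated anaerobically at 37 °C for 48 h. MIC = lowest concentration with no visible growth.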

B. cereus = assay: Broth microdilution MIC/MBC, B. cereus; type: cell-based; conditions: Bacillus cereus; for MBC: read-out: MBC; for MIC: read-out: MIC
Text: The broth microdilution technique was used, followed by subculturing on agar plates that were rhodanine—free.

[1] = tested on: vancomycin resistant enterococci (VRE) E. faecium; assay: Broth microdilution MIC/MBC, VRE E. faecium; type: cell-based; conditions: for MIC: read-out: MIC
[2] = tested on: vancomycin resistant enterococci (VRE) E. faecalis; assay: Broth microdilution MIC/MBC, VRE E. faecalis; type: cell-based; conditions: for MIC: read-out: MIC
Mycobacterium smegmatis = assay: Broth microdilution MIC/MBC, Mycobacterium smegmatis; type: cell-based; conditions: Mycolicibacterium smegmatis, ATCC14468, M. Smegmatis ATCC 14468
Escherichia coli Δ acrAB = assay: MIC against E. coli 1411 and AcrAB efflux pump deficient E. coli SM1411Δ acrAB; type: cell-based
Method in brief: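 Rhodanines and control antibiotics are tested for MIC against Gram-negative bacteria while a sub-inhibitory level of colistin or PMBN is present. A strain of E. coli lacking the AcrAB efflux pump (SM1411ΔacrAB) serves as an additional test organism.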

[3] = tested on: Vancomycin Resistant Staphylococcus aureus (VRSA); assay: Broth microdilution MIC/MBC, VRSA; type: cell-based; conditions: for MBC / MIC: VRSA
[4] = NRS201, B. cereus NRS 201 NR-2488
[5] = E. faecium HM 968 Strain ERV102
[6] = E. faecium NR31914 Strain E0120
[7] = E. faecium Patient #1–1 NR-31903
[8] = E. faecalis NR31972 Strain SF 28073

O=C(O)[C@H](Cc1ccccc1)N1C(=O)/C(=C/c2cccc(Oc3ccc(Cl)c(Cl)c3)c2)SC1=S [Rh 1]
MIC (Salmonella Typhimurium; Salmonella Typhimurium ATCC 700720, PMBN (+) 4 μg/mL, read-out: MIC): >128 µM
MIC (Salmonella Typhimurium; Salmonella enterica, ATCC 700720 / TYPHIMURIUM): > 128 µM
MIC (Escherichia coli O157:H7; Escherichia coli O157:H7 ATCC 35150, PMBN (+) 4 μg/mL, read-out: MIC): 8 µM (≈ 4.24 µg/mL)
MIC (Escherichia coli O157:H7; Escherichia coli O157:H7 ATCC 700728, PMBN (+) 4 μg/mL, read-out: MIC): >64 µM
MIC (Escherichia coli O157:H7; Escherichia coli, ATCC35150): > 256 µM
MIC (Escherichia coli O157:H7; Escherichia coli, ATCC700728): > 128 µM
MIC50 (Bacillus Strains): 4 µM (≈ 2.12 µg/mL)
MIC90 (Bacillus Strains): 4 µM (≈ 2.12 µg/mL)
MIC (P. aeruginosa; ATCC9721): > 128 µM
MIC (P. aeruginosa; ATCC15442): > 128 µM
MIC (Clostridium difficile; C. difficile HM-88): 4 µM (≈ 2.12 µg/mL)
MIC (Clostridium difficile; C. difficile HM-745): 2 µM (≈ 1.06 µg/mL)
MIC (Clostridium difficile; C. difficile HM-746): 4 µM (≈ 2.12 µg/mL)
MIC (Clostridium difficile; C. difficile Isolate-1 NR-13427): 4 µM (≈ 2.12 µg/mL)
MIC (Clostridium difficile; C. difficile Toxigenic Strain P8 NR-32888): 4 µM (≈ 2.12 µg/mL)
MBC (B. cereus; B. cereus BAG1O-2 NR-28582): 4 µM (≈ 2.12 µg/mL)
MIC (B. cereus; B. cereus BAG1O-2 NR-28582): 4 µM (≈ 2.12 µg/mL)
MBC (B. cereus; B. cereus BAG1X1-1 NR-28575): 2 µM (≈ 1.06 µg/mL)
MIC (B. cereus; B. cereus BAG1X1-1 NR-28575): 2 µM (≈ 1.06 µg/mL)
MBC (B. cereus; B. cereus BAG1X2-1 NR-28578): 4 µM (≈ 2.12 µg/mL)
MIC (B. cereus; B. cereus BAG1X2-1 NR-28578): 4 µM (≈ 2.12 µg/mL)
MBC (B. cereus; B. cereus G9241 NR-9564): 4 µM (≈ 2.12 µg/mL)
MIC (B. cereus; B. cereus G9241 NR-9564): 4 µM (≈ 2.12 µg/mL)
MBC (B. cereus; B. cereus VD014 NR-22141): 4 µM (≈ 2.12 µg/mL)
MIC (B. cereus; B. cereus VD014 NR-22141): 4 µM (≈ 2.12 µg/mL)
MBC (B. cereus; B. cereus VD115 NR-22148): 4 µM (≈ 2.12 µg/mL)
MIC (B. cereus; B. cereus VD115 NR-22148): 4 µM (≈ 2.12 µg/mL)
MBC (B. cereus; B. cereus VD148 NR-22150): 4 µM (≈ 2.12 µg/mL)
MIC (B. cereus; B. cereus VD148 NR-22150): 4 µM (≈ 2.12 µg/mL)
MBC (B. cereus; [4]): 4 µM (≈ 2.12 µg/mL)
MIC (B. cereus; [4]): 4 µM (≈ 2.12 µg/mL)
MBC ([1]; E. faecium E417 HM-965): > 64 µM
MIC ([1]; E. faecium E417 HM-965): 8 µM (≈ 4.24 µg/mL)
MBC ([1]; E. faecium E1071 NR-28978): 64 µM (≈ 33.9 µg/mL)
MIC ([1]; E. faecium E1071 NR-28978): 8 µM (≈ 4.24 µg/mL)
MBC [1, 5]: 32 µM (≈ 17 µg/mL)
MIC [1, 5]: 8 µM (≈ 4.24 µg/mL)
MBC [1, 6]: 64 µM (≈ 33.9 µg/mL)
MIC [1, 6]: 8 µM (≈ 4.24 µg/mL)
MBC [1, 7]: 16 µM (≈ 8.49 µg/mL)
MIC [1, 7]: 4 µM (≈ 2.12 µg/mL)
MBC ([2]; E. faecalis ERV103 HM-934): 8 µM (≈ 4.24 µg/mL)
MIC ([2]; E. faecalis ERV103 HM-934): 8 µM (≈ 4.24 µg/mL)
MBC [2, 8]: 32 µM (≈ 17 µg/mL)
MIC [2, 8]: 8 µM (≈ 4.24 µg/mL)
MBC ([2]; E. faecalis R712 HM-335): 8 µM (≈ 4.24 µg/mL)
MIC ([2]; E. faecalis R712 HM-335): 4 µM (≈ 2.12 µg/mL)
MBC ([2]; E. faecalis S613 HM-334): 8 µM (≈ 4.24 µg/mL)
MIC ([2]; E. faecalis S613 HM-334): 8 µM (≈ 4.24 µg/mL)
MBC ([2]; E. faecalis TX0104 HM-201): 8 µM (≈ 4.24 µg/mL)
MIC ([2]; E. faecalis TX0104 HM-201): 8 µM (≈ 4.24 µg/mL)
MBC (Mycobacterium smegmatis; read-out: MBC): 8 µM (≈ 4.24 µg/mL)
MIC (Mycobacterium smegmatis; read-out: MIC): 4 µM (≈ 2.12 µg/mL)
MIC (Escherichia coli Δ acrAB; E.coli 1411): > 64 µM
MIC (Escherichia coli Δ acrAB; E.coli 1411 SM (Δ acrAB, AcrAB efflux pump deficient)): > 64 µM
MIC50 ([3]; 15 VRSA strains, read-out: MIC 50): 8 µM (≈ 4.24 µg/mL)
MIC90 ([3]; 15 VRSA strains, read-out: MIC 90): 8 µM (≈ 4.24 µg/mL)
MBC ([3]; VRSA 1, read-out: MBC): 8 µM (≈ 4.24 µg/mL)
MIC ([3]; VRSA 1, read-out: MIC): 8 µM (≈ 4.24 µg/mL)
MBC ([3]; VRSA 2, read-out: MBC): 8 µM (≈ 4.24 µg/mL)
MIC ([3]; VRSA 2, read-out: MIC): 8 µM (≈ 4.24 µg/mL)
MBC ([3]; VRSA 3a, read-out: MBC): 16 µM (≈ 8.49 µg/mL)
MIC ([3]; VRSA 3a, read-out: MIC): 8 µM (≈ 4.24 µg/mL)
MBC ([3]; VRSA 3b, read-out: MBC): 8 µM (≈ 4.24 µg/mL)
MIC ([3]; VRSA 3b, read-out: MIC): 8 µM (≈ 4.24 µg/mL)
MBC ([3]; VRSA 4, read-out: MBC): 8 µM (≈ 4.24 µg/mL)
MIC ([3]; VRSA 4, read-out: MIC): 8 µM (≈ 4.24 µg/mL)
MBC ([3]; VRSA 5, read-out: MBC): 16 µM (≈ 8.49 µg/mL)
MIC ([3]; VRSA 5, read-out: MIC): 8 µM (≈ 4.24 µg/mL)
MBC ([3]; VRSA 6, read-out: MBC): 8 µM (≈ 4.24 µg/mL)
MIC ([3]; VRSA 6, read-out: MIC): 4 µM (≈ 2.12 µg/mL)
MBC ([3]; VRSA 7, read-out: MBC): 8 µM (≈ 4.24 µg/mL)
MIC ([3]; VRSA 7, read-out: MIC): 8 µM (≈ 4.24 µg/mL)
MBC ([3]; VRSA 8, read-out: MBC): 32 µM (≈ 17 µg/mL)
MIC ([3]; VRSA 8, read-out: MIC): 4 µM (≈ 2.12 µg/mL)
MBC ([3]; VRSA 9, read-out: MBC): 32 µM (≈ 17 µg/mL)
MIC ([3]; VRSA 9, read-out: MIC): 8 µM (≈ 4.24 µg/mL)
MBC ([3]; VRSA 10, read-out: MBC): 32 µM (≈ 17 µg/mL)
MIC ([3]; VRSA 10, read-out: MIC): 8 µM (≈ 4.24 µg/mL)
MBC ([3]; VRSA 11a, read-out: MBC): 16 µM (≈ 8.49 µg/mL)
MIC ([3]; VRSA 11a, read-out: MIC): 8 µM (≈ 4.24 µg/mL)
MBC ([3]; VRSA 11b, read-out: MBC): 32 µM (≈ 17 µg/mL)
MIC ([3]; VRSA 11b, read-out: MIC): 8 µM (≈ 4.24 µg/mL)
MBC ([3]; VRSA 12, read-out: MBC): 32 µM (≈ 17 µg/mL)
MIC ([3]; VRSA 12, read-out: MIC): 8 µM (≈ 4.24 µg/mL)
MBC ([3]; VRSA 13, read-out: MBC): 32 µM (≈ 17 µg/mL)
MIC ([3]; VRSA 13, read-out: MIC): 8 µM (≈ 4.24 µg/mL)

— PMC5053523, “In Vitro Antibacterial Activity of Rhodanine Derivatives against Pathogenic Clinical Isolates” (PLoS ONE, 2016)
